# Reference: US12466812B2, “Pyridinyltriazine derivative having protein kinase inhibitory activity, and pharmaceutical composition for preventing, ameliorating, or treating cancer comprising same” (KOREA INSTITUTE OF SCIENCE AND TECHNOLOGY, priority 2019, dated 2025)
# Key:
# CYP3A4 = CYP3A4 (Homo sapiens, UniProt P08684); test: Inhibitory activity against CYP metabolic enzyme; format: in vitro ADME
# Protocol: (§1) In order to determine whether or not there is a possibility that the compounds synthesized in Examples 1, 22, and 24 of the present invention can cause side effects of drug interaction, the rate (%) of inhibition against 5 major metabolic enzymes (CYP1A2, CYP2C9, CYP2C19, CYP2D6, and CYP3A4) among CYPs (cytochrome P450), which are enzymes involved in oxidative metabolism of drugs, was measured. […] That is, it can be seen that the compound of the present invention has a low possibility of causing side effects of drug interaction.
# CYP2C9 = CYP2C9 (Homo sapiens, UniProt P11712); test: Inhibitory activity against CYP metabolic enzyme; format: in vitro ADME
# CYP2C9, sequence (P11712 whole entry): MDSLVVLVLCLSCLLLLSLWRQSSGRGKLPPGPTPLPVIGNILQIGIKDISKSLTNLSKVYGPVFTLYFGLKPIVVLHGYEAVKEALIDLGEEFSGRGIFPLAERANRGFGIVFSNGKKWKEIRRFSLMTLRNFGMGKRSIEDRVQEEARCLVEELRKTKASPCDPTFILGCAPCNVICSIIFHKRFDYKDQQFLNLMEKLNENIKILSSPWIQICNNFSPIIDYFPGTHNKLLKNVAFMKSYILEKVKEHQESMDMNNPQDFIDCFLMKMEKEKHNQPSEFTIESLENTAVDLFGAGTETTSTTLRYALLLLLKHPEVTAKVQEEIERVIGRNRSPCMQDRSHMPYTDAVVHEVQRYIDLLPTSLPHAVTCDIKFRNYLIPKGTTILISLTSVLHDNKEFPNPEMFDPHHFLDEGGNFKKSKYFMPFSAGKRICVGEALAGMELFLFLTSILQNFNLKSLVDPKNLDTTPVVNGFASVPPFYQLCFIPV
# Protocol: as §1
# CYP1A2 = target: T1, CYP1A2 (Homo sapiens, UniProt P05177); test: Inhibitory activity against CYP metabolic enzyme; format: in vitro ADME
# T1 sequence (P05177 1-516): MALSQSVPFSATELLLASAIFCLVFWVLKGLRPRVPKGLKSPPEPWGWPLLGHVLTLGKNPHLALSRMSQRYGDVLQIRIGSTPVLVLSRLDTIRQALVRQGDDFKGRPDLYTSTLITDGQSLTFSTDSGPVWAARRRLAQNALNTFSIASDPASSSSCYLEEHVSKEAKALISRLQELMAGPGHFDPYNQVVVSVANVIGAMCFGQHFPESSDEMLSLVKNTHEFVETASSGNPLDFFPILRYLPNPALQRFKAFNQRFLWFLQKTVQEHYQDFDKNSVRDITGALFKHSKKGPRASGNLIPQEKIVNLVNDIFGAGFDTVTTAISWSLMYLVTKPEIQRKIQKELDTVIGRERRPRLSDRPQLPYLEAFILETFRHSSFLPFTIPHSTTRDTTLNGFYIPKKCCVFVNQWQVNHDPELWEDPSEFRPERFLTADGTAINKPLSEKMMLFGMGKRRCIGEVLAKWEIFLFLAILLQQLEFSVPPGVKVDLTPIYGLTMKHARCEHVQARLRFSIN
# Protocol: as §1
# CYP2D6 = CYP2D6 (Homo sapiens, UniProt P10635); test: Inhibitory activity against CYP metabolic enzyme; format: in vitro ADME
# CYP2D6, sequence (P10635 whole entry): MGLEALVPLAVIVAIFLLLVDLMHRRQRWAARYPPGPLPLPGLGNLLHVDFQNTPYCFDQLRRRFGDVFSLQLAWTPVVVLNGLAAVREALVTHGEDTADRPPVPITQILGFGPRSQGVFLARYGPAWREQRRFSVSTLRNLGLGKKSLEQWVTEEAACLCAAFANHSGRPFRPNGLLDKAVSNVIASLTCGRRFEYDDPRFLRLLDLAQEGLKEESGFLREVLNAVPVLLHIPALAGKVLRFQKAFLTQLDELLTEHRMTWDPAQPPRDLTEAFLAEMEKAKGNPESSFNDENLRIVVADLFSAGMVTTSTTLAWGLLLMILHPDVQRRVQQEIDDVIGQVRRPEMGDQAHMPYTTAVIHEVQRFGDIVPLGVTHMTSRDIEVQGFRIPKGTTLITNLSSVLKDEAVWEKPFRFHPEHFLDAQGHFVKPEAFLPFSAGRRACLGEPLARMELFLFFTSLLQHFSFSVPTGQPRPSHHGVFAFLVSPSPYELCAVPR
# Protocol: as §1
# CYP2C19 = CYP2C19 (Homo sapiens, UniProt P33261); test: Inhibitory activity against CYP metabolic enzyme; format: in vitro ADME
# Protocol: as §1
# FGFR2 mutant (N549H) = FGFR2 mutant (N549H) (Homo sapiens, UniProt P21802, N549H); test: Pan-FGFR mutant enzymatic activity; format: biochemical; conditions: mutant enzyme
# FGFR2 mutant (N549H), sequence (P21802 22-821 N549H): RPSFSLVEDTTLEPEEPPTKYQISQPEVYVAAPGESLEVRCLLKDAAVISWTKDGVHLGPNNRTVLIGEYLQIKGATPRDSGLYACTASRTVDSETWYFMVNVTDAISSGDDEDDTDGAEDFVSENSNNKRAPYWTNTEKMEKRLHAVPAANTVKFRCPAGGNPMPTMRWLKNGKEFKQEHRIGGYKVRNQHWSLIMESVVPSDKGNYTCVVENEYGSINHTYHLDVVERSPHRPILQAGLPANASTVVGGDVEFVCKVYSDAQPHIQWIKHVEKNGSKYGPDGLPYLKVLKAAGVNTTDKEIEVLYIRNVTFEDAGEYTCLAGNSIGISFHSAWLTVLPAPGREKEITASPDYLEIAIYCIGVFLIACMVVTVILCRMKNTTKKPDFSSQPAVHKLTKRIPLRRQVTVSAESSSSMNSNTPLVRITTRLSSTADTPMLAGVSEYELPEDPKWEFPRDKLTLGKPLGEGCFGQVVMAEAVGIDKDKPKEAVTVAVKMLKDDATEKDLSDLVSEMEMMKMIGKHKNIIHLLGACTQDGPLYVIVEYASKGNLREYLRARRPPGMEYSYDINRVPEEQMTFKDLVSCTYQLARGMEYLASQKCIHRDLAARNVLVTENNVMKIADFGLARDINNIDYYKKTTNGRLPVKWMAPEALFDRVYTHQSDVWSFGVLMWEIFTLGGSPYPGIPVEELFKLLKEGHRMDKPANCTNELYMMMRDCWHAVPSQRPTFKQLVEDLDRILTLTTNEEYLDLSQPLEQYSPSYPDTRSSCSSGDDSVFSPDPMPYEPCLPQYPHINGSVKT
# Protocol: (§2) The inhibitory activity against pan-FGFR mutants of the compounds synthesized in Examples 1, 8, 13, 22, and 24 was measured, the inhibitory activity on each of enzymatic activity and cellular activity was evaluated, and the results are shown in Tables 3 and 4 below.
# FGFR3 mutant (K650M) = FGFR3 mutant (K650M) (Homo sapiens, UniProt P22607, K650M); test: Pan-FGFR mutant enzymatic activity; format: biochemical; conditions: mutant enzyme
# FGFR3 mutant (K650M), sequence (P22607 23-806 K650M): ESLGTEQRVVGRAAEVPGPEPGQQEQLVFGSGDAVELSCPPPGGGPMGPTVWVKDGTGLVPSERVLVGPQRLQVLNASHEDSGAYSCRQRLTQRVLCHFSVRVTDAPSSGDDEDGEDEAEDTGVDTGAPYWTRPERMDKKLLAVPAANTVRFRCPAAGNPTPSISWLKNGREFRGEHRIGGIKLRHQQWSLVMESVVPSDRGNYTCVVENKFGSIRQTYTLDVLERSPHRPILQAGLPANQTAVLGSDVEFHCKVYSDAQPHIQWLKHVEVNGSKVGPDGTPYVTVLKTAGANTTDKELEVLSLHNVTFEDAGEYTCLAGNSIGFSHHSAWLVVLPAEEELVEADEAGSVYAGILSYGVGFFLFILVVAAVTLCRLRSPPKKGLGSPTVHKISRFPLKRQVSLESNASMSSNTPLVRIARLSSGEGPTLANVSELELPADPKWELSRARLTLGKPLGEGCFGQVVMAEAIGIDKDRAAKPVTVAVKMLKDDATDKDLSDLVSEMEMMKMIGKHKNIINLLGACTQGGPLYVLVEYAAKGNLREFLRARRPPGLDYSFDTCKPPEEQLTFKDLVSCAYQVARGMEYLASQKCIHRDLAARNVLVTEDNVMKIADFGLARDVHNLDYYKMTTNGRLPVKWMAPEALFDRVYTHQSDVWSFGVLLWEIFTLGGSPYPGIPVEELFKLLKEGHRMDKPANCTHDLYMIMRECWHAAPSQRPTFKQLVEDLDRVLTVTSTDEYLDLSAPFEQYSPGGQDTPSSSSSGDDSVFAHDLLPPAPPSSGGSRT
# Protocol: as §2
# FGFR3 mutant (V555M) = FGFR3 mutant (V555M) (Homo sapiens, UniProt P22607, V555M); test: Pan-FGFR mutant enzymatic activity; format: biochemical; conditions: mutant enzyme
# FGFR3 mutant (V555M), sequence (P22607 23-806 V555M): as the sequence (P22607 23-806 K650M) above, with V533M, M628K counted along it
# Protocol: as §2
# FGFR3 mutant (K650E) = FGFR3 mutant (K650E) (Homo sapiens, UniProt P22607, K650E); test: Pan-FGFR mutant enzymatic activity; format: biochemical; conditions: mutant enzyme
# FGFR3 mutant (K650E), sequence (P22607 23-806 K650E): as the sequence (P22607 23-806 K650M) above, with M628E counted along it
# Protocol: as §2
# FGFR2 mutant (V564F) = FGFR2 mutant (V564F) (Homo sapiens, UniProt P21802, V564F); test: Pan-FGFR mutant enzymatic activity; format: biochemical; conditions: mutant enzyme
# FGFR2 mutant (V564F), sequence (P21802 22-821 V564F): as the sequence (P21802 22-821 N549H) above, with H528N, V543F counted along it
# Protocol: as §2
# CDK4 = CDK4 (Homo sapiens, UniProt P11802); test: Kinase panel biochemical assay; conditions: single concentration of 1 μM; panel of 369 kinases; read-out: kinase activity inhibited (%), CDK4
# CDK4, sequence (P11802 whole entry): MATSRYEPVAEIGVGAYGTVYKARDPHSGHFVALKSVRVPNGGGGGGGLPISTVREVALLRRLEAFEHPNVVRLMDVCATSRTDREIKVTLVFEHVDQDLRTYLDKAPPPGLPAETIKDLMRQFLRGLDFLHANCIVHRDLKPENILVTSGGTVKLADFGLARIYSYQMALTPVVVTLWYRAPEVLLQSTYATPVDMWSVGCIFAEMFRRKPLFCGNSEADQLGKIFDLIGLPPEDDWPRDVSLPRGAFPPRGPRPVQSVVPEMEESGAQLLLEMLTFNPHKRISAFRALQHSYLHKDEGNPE
# CDK4, sequence (P24385 whole entry partner): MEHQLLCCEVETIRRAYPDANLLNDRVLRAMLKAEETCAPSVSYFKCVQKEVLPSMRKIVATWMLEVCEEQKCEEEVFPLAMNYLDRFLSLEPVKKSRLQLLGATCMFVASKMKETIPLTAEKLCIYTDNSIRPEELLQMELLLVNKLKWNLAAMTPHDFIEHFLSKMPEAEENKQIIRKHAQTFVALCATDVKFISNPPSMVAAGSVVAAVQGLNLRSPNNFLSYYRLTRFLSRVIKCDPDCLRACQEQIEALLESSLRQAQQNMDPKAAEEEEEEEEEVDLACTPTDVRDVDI
# Protocol: (§3) In order to measure the inhibitory activity (%) against protein kinases of the compounds of the present invention, biochemical assays were performed on a full kinase panel composed of 369 kinases.
# MAK = MAK (Homo sapiens, UniProt P20794); test: Kinase panel biochemical assay; conditions: single concentration of 1 μM; panel of 369 kinases; read-out: kinase activity inhibited (%), MAK
# Protocol: as §3
# CLK2 = CLK2 (Homo sapiens, UniProt P49760); test: Kinase panel biochemical assay; conditions: single concentration of 1 μM; panel of 369 kinases; read-out: kinase activity inhibited (%), CLK2
# CLK2, sequence (P49760 whole entry): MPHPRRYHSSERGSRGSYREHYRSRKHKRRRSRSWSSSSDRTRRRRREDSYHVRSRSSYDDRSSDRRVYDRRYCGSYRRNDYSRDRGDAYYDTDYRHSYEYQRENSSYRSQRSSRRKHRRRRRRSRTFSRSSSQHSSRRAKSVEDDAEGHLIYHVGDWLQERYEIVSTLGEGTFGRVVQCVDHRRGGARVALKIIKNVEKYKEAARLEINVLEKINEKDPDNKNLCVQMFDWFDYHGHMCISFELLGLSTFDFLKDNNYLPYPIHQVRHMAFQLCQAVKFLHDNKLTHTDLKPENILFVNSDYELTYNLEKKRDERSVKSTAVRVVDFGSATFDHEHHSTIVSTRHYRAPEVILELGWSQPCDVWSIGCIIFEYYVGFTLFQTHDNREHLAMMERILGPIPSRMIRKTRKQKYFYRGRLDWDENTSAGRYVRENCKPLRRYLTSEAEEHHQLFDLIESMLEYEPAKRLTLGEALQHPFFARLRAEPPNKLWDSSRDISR
# Protocol: as §3
# FGFR2 = FGFR2 (Homo sapiens, UniProt P21802); test: Kinase panel biochemical assay; conditions: single concentration of 1 μM; panel of 369 kinases; read-out: kinase activity inhibited (%), FGFR2
# FGFR2, sequence (P21802 22-821): as the sequence (P21802 22-821 N549H) above, with H528N counted along it
# Protocol: as §3
# FGFR3 = FGFR3 (Homo sapiens, UniProt P22607); test: Kinase panel biochemical assay; conditions: single concentration of 1 μM; panel of 369 kinases; read-out: kinase activity inhibited (%), FGFR3
# FGFR3, sequence (P22607 23-806): as the sequence (P22607 23-806 K650M) above, with M628K counted along it
# Protocol: as §3
# PCTAIRE2 = PCTAIRE2 (Homo sapiens, UniProt Q00537); test: Kinase panel biochemical assay; conditions: single concentration of 1 μM; panel of 369 kinases; read-out: kinase activity inhibited (%), PCTAIRE2
# Protocol: as §3
# LYN = LYN (Homo sapiens, UniProt P07948); test: Kinase panel biochemical assay; conditions: single concentration of 1 μM; panel of 369 kinases; read-out: kinase activity inhibited (%), LYN
# Protocol: as §3
# ROS = ROS (Homo sapiens, UniProt P08922); test: Kinase panel biochemical assay; conditions: single concentration of 1 μM; panel of 369 kinases; read-out: kinase activity inhibited (%), ROS
# Protocol: as §3
# MPSK1 = MPSK1 (Homo sapiens, UniProt O75716); test: Kinase panel biochemical assay; conditions: single concentration of 1 μM; panel of 369 kinases; read-out: kinase activity inhibited (%), MPSK1
# MPSK1, sequence (O75716 whole entry): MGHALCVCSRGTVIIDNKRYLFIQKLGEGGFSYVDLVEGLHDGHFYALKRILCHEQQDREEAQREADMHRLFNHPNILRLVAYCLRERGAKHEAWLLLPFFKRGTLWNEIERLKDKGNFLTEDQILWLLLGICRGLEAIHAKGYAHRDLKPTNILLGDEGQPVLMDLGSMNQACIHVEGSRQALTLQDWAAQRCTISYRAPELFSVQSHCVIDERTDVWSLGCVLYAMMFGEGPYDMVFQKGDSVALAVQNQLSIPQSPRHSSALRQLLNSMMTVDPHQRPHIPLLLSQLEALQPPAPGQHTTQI
# Protocol: as §3
# TAO2 = TAO2 (Homo sapiens, UniProt Q9UL54); test: Kinase panel biochemical assay; conditions: single concentration of 1 μM; panel of 369 kinases; read-out: kinase activity inhibited (%), TAO2
# Protocol: as §3
# CDK6 = CDK6 (Homo sapiens, UniProt Q00534); test: Kinase panel biochemical assay; conditions: single concentration of 1 μM; panel of 369 kinases; read-out: kinase activity inhibited (%), CDK6
# CDK6, sequence (Q00534 whole entry): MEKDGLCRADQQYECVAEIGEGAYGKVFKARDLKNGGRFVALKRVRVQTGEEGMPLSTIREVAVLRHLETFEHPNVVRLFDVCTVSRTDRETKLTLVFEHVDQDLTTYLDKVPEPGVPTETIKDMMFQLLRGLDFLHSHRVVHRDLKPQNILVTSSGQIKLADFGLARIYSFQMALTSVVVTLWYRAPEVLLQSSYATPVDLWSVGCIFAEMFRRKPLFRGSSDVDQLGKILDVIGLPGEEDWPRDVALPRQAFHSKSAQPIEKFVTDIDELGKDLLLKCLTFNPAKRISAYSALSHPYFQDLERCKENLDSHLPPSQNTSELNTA
# CDK6, sequence (P30281 whole entry partner): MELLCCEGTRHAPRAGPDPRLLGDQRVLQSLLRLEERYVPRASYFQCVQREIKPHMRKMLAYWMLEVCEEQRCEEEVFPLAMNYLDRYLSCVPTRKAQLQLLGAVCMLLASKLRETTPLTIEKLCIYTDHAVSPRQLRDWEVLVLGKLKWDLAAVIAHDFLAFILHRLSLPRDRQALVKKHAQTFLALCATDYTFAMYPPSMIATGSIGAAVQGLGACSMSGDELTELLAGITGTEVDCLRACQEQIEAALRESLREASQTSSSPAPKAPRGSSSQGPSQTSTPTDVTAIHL
# Protocol: as §3
# PCTAIRE1 = PCTAIRE1 (Homo sapiens, UniProt Q00536); test: Kinase panel biochemical assay; conditions: single concentration of 1 μM; panel of 369 kinases; read-out: kinase activity inhibited (%), PCTAIRE1
# Protocol: as §3
# PHKg1 = PHKg1 (Homo sapiens, UniProt Q16816); test: Kinase panel biochemical assay; conditions: single concentration of 1 μM; panel of 369 kinases; read-out: kinase activity inhibited (%), PHKg1
# Protocol: as §3
smiles,measurement,setting,value
CCN1CCN(c2ccc(Nc3ncnc(-c4cccnc4Nc4c(Cl)c(OC)cc(OC)c4Cl)n3)cc2)CC1 [Example 1],"rate (%) of inhibition, CYP3A4",CYP3A4,17.0%
same,"rate (%) of inhibition, CYP2C9",CYP2C9,70.2%
same,"rate (%) of inhibition, CYP1A2",CYP1A2,71.4%
same,"rate (%) of inhibition, CYP2D6",CYP2D6,80.9%
same,"rate (%) of inhibition, CYP2C19",CYP2C19,26.7%
same,IC50,FGFR2 mutant (N549H),< 100 nM
same,IC50,FGFR3 mutant (K650M),< 100 nM
same,IC50,FGFR3 mutant (V555M),100 to 1000 nM
same,IC50,FGFR3 mutant (K650E),< 100 nM
same,IC50,FGFR2 mutant (V564F),100 to 1000 nM
same,inhibition at 1 µM,CDK4,≥ 90%
same,inhibition at 1 µM,MAK,≥ 90%
same,inhibition at 1 µM,CLK2,≥ 90%
same,inhibition at 1 µM,FGFR2,≥ 90%
same,inhibition at 1 µM,FGFR3,≥ 90%
same,inhibition at 1 µM,PCTAIRE2,≥ 90%
same,inhibition at 1 µM,LYN,≥ 90%
same,inhibition at 1 µM,ROS,≥ 90%
same,inhibition at 1 µM,MPSK1,≥ 90%
same,inhibition at 1 µM,TAO2,≥ 90%
same,inhibition at 1 µM,CDK6,≥ 90%
same,inhibition at 1 µM,PCTAIRE1,≥ 90%
same,inhibition at 1 µM,PHKg1,≥ 90%
